System: skin
Assay: Affymetrix microarray of skin, DBP-4 hr and analogs vs. untreated; gene selection by log-2 fold change, Wilcoxon, Kendall tau (Tables 8, 9)
Assay type: in vivo, mouse
Settings: for Kendall: Kendall tau coefficient
[1] = DBP-4 hr vs. untreated, rank-sum p-value

CCCCOC(=O)c1ccccc1C(=O)OCCCC [DBP, dibutylphthalate]
No: Kendall (2310016C08Rik NM_001190461_at) | Kendall (Atf3 NM_007498_at) | Wilcoxon (Birc3 NM_007464_at, DBP-4 hr vs. untreated) | Kendall (Birc3 NM_007464_at) | Kendall (Casp4 NM_007609_at) | Wilcoxon (Cd44 NM_001039150_at, DBP-4 hr vs. untreated) | Kendall (Cd44 NM_001039150_at) | Wilcoxon (Cd44 NM_001039151_at, DBP-4 hr vs. untreated) | Kendall (Cd44 NM_001039151_at) | Kendall (Cebpd NM_007679_at) | Wilcoxon (Csf2rb NM_007780_at, DBP-4 hr vs. untreated) | Kendall (Cxcl1 NM_008176_at) | Abcc3 (NM_029600_at) Wilcoxon (DBP-4 hr vs. untreated) | Akap12 (NM_031185_at) Wilcoxon (DBP-4 hr vs. untreated) | Bcar3 (NM_013867_at) Wilcoxon (DBP-4 hr vs. untreated) | Bhlhe40 (NM_011498_at) Wilcoxon (DBP-4 hr vs. untreated) | Calcb (NM_054084_at) Wilcoxon (DBP-4 hr vs. untreated) | Clic4 (NM_013885_at) Wilcoxon (DBP-4 hr vs. untreated) | Cytip (NM_139200_at) Wilcoxon (DBP-4 hr vs. untreated) | Dusp7 (NM_153459_at) Wilcoxon (DBP-4 hr vs. untreated) | Ier2 (NM_010499_at) Wilcoxon (DBP-4 hr vs. untreated) | Jdp2 (NM_030887_at) Wilcoxon (DBP-4 hr vs. untreated) | Jun (NM_010591_at) Wilcoxon (DBP-4 hr vs. untreated) | Klrb1b (NM_030599_at) Wilcoxon (DBP-4 hr vs. untreated) | Krt35 (NM_016880_at) Wilcoxon (DBP-4 hr vs. untreated) | Map3k6 (NM_016693_at) Wilcoxon (DBP-4 hr vs. untreated) | Mt1 (NM_013602_at) Wilcoxon (DBP-4 hr vs. untreated) | Nfkbia (NM_010907_at) Wilcoxon (DBP-4 hr vs. untreated) | Otud7a (NM_130880_at) Wilcoxon (DBP-4 hr vs. untreated) | Plaur (NM_011113_at) Wilcoxon (DBP-4 hr vs. untreated) | Plscr1 (NM_011636_at) Wilcoxon (DBP-4 hr vs. untreated) | Ptges (NM_022415_at) Wilcoxon (DBP-4 hr vs. untreated) | Ramp3 (NM_019511_at) Wilcoxon (DBP-4 hr vs. untreated) | Rnf19b (NM_029219_at) Wilcoxon (DBP-4 hr vs. untreated) | Slc10a6 (NM_029415_at) Wilcoxon (DBP-4 hr vs. untreated) | Slc15a3 (NM_023044_at) Wilcoxon (DBP-4 hr vs. untreated) | Slc25a25 (NM_146118_at) Wilcoxon (DBP-4 hr vs. untreated) | Uap1 (NM_133806_at) Wilcoxon (DBP-4 hr vs. untreated) | Zfp593 (NM_024215_at) Wilcoxon (DBP-4 hr vs. untreated) | 2510002D24Rik NM_001033164_at Wilcoxon [1] | 2510009E07Rik NM_001001881_at Wilcoxon [1] | Aldh7a1 NM_001127338_at Wilcoxon [1] | Atp2a2 NM_001110140_at Wilcoxon [1] | Atp13a3 NM_001128094_at Wilcoxon [1] | Atp13a3 NM_001128096_at Wilcoxon [1] | Bcr NM_001081412_at Wilcoxon [1] | Camk2g NM_001039138_at Wilcoxon [1] | Camk2g NM_001039139_at Wilcoxon [1] | Cyth1 NM_001112699_at Wilcoxon [1] | Cyth1 NM_001112700_at Wilcoxon [1] | Deptor NM_001037937_at Wilcoxon [1] | Dlgap4 NM_001042487_at Wilcoxon [1] | Dlgap4 NM_001042488_at Wilcoxon [1] | Fam134b NM_001034851_at Wilcoxon [1] | Gcdh NM_001044744_at Wilcoxon [1]
Yes: Wilcoxon (2310016C08Rik NM_001190461_at, DBP-4 hr vs. untreated) | Wilcoxon (Adam8 NM_007403_at, DBP-4 hr vs. untreated) | Kendall (Adam8 NM_007403_at) | Wilcoxon (Atf3 NM_007498_at, DBP-4 hr vs. untreated) | Wilcoxon (Btg2 NM_007570_at, DBP-4 hr vs. untreated) | Kendall (Btg2 NM_007570_at) | Wilcoxon (Casp4 NM_007609_at, DBP-4 hr vs. untreated) | Wilcoxon (Cebpd NM_007679_at, DBP-4 hr vs. untreated) | Kendall (Csf2rb NM_007780_at) | Wilcoxon (Cxcl1 NM_008176_at, DBP-4 hr vs. untreated) | 1600029D21Rik (NM_029639_at) Wilcoxon (DBP-4 hr vs. untreated) | 2010002N04Rik (NM_134133_at) Wilcoxon (DBP-4 hr vs. untreated) | 2310016C08Rik (NM_023516_at) Wilcoxon (DBP-4 hr vs. untreated) | 1810011010Rik (NM_026931_at) Wilcoxon (DBP-4 hr vs. untreated) | Acot5 (NM_145444_at) Wilcoxon (DBP-4 hr vs. untreated) | Adamts4 (NM_172845_at) Wilcoxon (DBP-4 hr vs. untreated) | Angptl4 (NM_020581_at) Wilcoxon (DBP-4 hr vs. untreated) | Arc (NM_018790_at) Wilcoxon (DBP-4 hr vs. untreated) | Arid5a (NM_145996_at) Wilcoxon (DBP-4 hr vs. untreated) | Arid5a (NR_033310_at) Wilcoxon (DBP-4 hr vs. untreated) | Bcl3 (NM_033601_at) Wilcoxon (DBP-4 hr vs. untreated) | Ccl1 (NM_011329_at) Wilcoxon (DBP-4 hr vs. untreated) | Ccl2 (NM_011333_at) Wilcoxon (DBP-4 hr vs. untreated) | Ccl3 (NM_011337_at) Wilcoxon (DBP-4 hr vs. untreated) | Ccl7 (NM_013654_at) Wilcoxon (DBP-4 hr vs. untreated) | Ccl9 (NM_011338_at) Wilcoxon (DBP-4 hr vs. untreated) | Ccl12 (NM_011331_at) Wilcoxon (DBP-4 hr vs. untreated) | Ccl17 (NM_011332_at) Wilcoxon (DBP-4 hr vs. untreated) | Ccl20 (NM_016960_at) Wilcoxon (DBP-4 hr vs. untreated) | Cd86 (NM_019388_at) Wilcoxon (DBP-4 hr vs. untreated) | Cd207 (NM_144943_at) Wilcoxon (DBP-4 hr vs. untreated) | Clec4e (NM_019948_at) Wilcoxon (DBP-4 hr vs. untreated) | Clec7a (NM_020008_at) Wilcoxon (DBP-4 hr vs. untreated) | Clec4d (NM_010819_at) Wilcoxon (DBP-4 hr vs. untreated) | Crem (NM_013498_at) Wilcoxon (DBP-4 hr vs. untreated) | Cxcl16 (NM_023158_at) Wilcoxon (DBP-4 hr vs. untreated) | Cyr61 (NM_010516_at) Wilcoxon (DBP-4 hr vs. untreated) | Dusp6 (NM_026268_at) Wilcoxon (DBP-4 hr vs. untreated) | Epgn (NM_053087_at) Wilcoxon (DBP-4 hr vs. untreated) | Gzmb (NM_013542_at) Wilcoxon (DBP-4 hr vs. untreated) | Havcr2 (NM_134250_at) Wilcoxon (DBP-4 hr vs. untreated) | Ier3 (NM_133662_at) Wilcoxon (DBP-4 hr vs. untreated) | Ifi202b (NM_011940_at) Wilcoxon (DBP-4 hr vs. untreated) | Il1f6 (NM_019450_at) Wilcoxon (DBP-4 hr vs. untreated) | Il6 (NM_031168_at) Wilcoxon (DBP-4 hr vs. untreated) | Il20 (NM_021380_at) Wilcoxon (DBP-4 hr vs. untreated) | Klk6 (NM_011177_at) Wilcoxon (DBP-4 hr vs. untreated) | Krt25 (NM_133730_at) Wilcoxon (DBP-4 hr vs. untreated) | Krt27 (NM_010666_at) Wilcoxon (DBP-4 hr vs. untreated) | Krt71 (NM_019956_at) Wilcoxon (DBP-4 hr vs. untreated) | Krtap4-16 (NM_001013823_at) Wilcoxon (DBP-4 hr vs. untreated) | LOC100044068 (XM_001473873_at) Wilcoxon (DBP-4 hr vs. untreated) | LOC100504977 (XM_003085794_at) Wilcoxon (DBP-4 hr vs. untreated) | Maff (NM_010755_at) Wilcoxon (DBP-4 hr vs. untreated) | Mcoln2 (NM_026656_at) Wilcoxon (DBP-4 hr vs. untreated) | NA (AFFX-18SRNAMur/X00686_3_at) Wilcoxon (DBP-4 hr vs. untreated) | NA (AFFX-18SRNAMur/X00686_5_at) Wilcoxon (DBP-4 hr vs. untreated) | NA (AFFX-18SRNAMur/X00686_M_at) Wilcoxon (DBP-4 hr vs. untreated) | NA (AFFX-BioB-3_at) Wilcoxon (DBP-4 hr vs. untreated) | NA (AFFX-BioB-5_at) Wilcoxon (DBP-4 hr vs. untreated) | NA (AFFX-BioB-M_at) Wilcoxon (DBP-4 hr vs. untreated) | NA (AFFX-BioC-3_at) Wilcoxon (DBP-4 hr vs. untreated) | NA (AFFX-BioC-5_at) Wilcoxon (DBP-4 hr vs. untreated) | NA (AFFX-BioDn-3_at) Wilcoxon (DBP-4 hr vs. untreated) | NA (AFFX-BioDn-5_at) Wilcoxon (DBP-4 hr vs. untreated) | NA (AFFX-ThrX-5_at) Wilcoxon (DBP-4 hr vs. untreated) | Nfil3 (NM_017373_at) Wilcoxon (DBP-4 hr vs. untreated) | Nfkbiz (NM_030612_at) Wilcoxon (DBP-4 hr vs. untreated) | Nr4a2 (NM_013613_at) Wilcoxon (DBP-4 hr vs. untreated) | Pde4b (NM_019840_at) Wilcoxon (DBP-4 hr vs. untreated) | Pdk4 (NM_013743_at) Wilcoxon (DBP-4 hr vs. untreated) | Plek (NM_019549_at) Wilcoxon (DBP-4 hr vs. untreated) | Pmaip1 (NM_021451_at) Wilcoxon (DBP-4 hr vs. untreated) | Prss22 (NM_133731_at) Wilcoxon (DBP-4 hr vs. untreated) | Pyy (NM_145435_at) Wilcoxon (DBP-4 hr vs. untreated) | Rab20 (NM_011227_at) Wilcoxon (DBP-4 hr vs. untreated) | Rgs1 (NM_015811_at) Wilcoxon (DBP-4 hr vs. untreated) | Saa3 (NM_011315_at) Wilcoxon (DBP-4 hr vs. untreated) | Slc5a1 (NM_019810_at) Wilcoxon (DBP-4 hr vs. untreated) | Slc7a5 (NM_011404_at) Wilcoxon (DBP-4 hr vs. untreated) | Slc34a2 (NM_011402_at) Wilcoxon (DBP-4 hr vs. untreated) | Slc39a8 (NM_026228_at) Wilcoxon (DBP-4 hr vs. untreated) | Slfn2 (NM_011408_at) Wilcoxon (DBP-4 hr vs. untreated) | Slfn4 (NM_011410_at) Wilcoxon (DBP-4 hr vs. untreated) | Slpi (NM_011414_at) Wilcoxon (DBP-4 hr vs. untreated) | Smox (NM_145533_at) Wilcoxon (DBP-4 hr vs. untreated) | Stfa3 (NM_025288_at) Wilcoxon (DBP-4 hr vs. untreated) | Timp1 (NM_011593_at) Wilcoxon (DBP-4 hr vs. untreated) | Tlr2 (NM_011905_at) Wilcoxon (DBP-4 hr vs. untreated) | Tnf (NM_013693_at) Wilcoxon (DBP-4 hr vs. untreated) | Tnfrsf12a (NM_013749_at) Wilcoxon (DBP-4 hr vs. untreated) | Tslp (NM_021367_at) Wilcoxon (DBP-4 hr vs. untreated) | Tslp (NR_033206_at) Wilcoxon (DBP-4 hr vs. untreated) | Tubb6 (NM_026473_at) Wilcoxon (DBP-4 hr vs. untreated) | Zc3h12a (NM_153159_at) Wilcoxon (DBP-4 hr vs. untreated) | Zfp36 (NM_011756_at) Wilcoxon (DBP-4 hr vs. untreated) | 1110032A04Rik NM_133675_at Wilcoxon [1] | 2610528A11Rik XR_105647_at Wilcoxon [1] | 1500015010Rik NM_024283_at Wilcoxon [1] | 3110079015Rik NM_028473_at Wilcoxon [1] | A2m NM_175628_at Wilcoxon [1] | AY026312 NM_133359_at Wilcoxon [1] | Actn2 NM_033268_at Wilcoxon [1] | Akr1c14 NM_134072_at Wilcoxon [1] | Aox4 NM_023631_at Wilcoxon [1] | Asb5 NM_029569_at Wilcoxon [1] | Ccl8 NM_021443_at Wilcoxon [1] | Ccl24 NM_019577_at Wilcoxon [1] | Cd209d NM_130904_at Wilcoxon [1] | Ckmt2 NM_198415_at Wilcoxon [1] | Cldn8 NM_018778_at Wilcoxon [1] | Clec4n NM_020001_at Wilcoxon [1] | Cmya5 NM_023821_at Wilcoxon [1] | Comp NM_016685_at Wilcoxon [1] | Corin NM_016869_at Wilcoxon [1] | Crispld1 NM_031402_at Wilcoxon [1] | Cxcl10 NM_021274_at Wilcoxon [1] | Cxcr6 NM_030712_at Wilcoxon [1] | Dbp NM_016974_at Wilcoxon [1] | Ear5 NM_019398_at Wilcoxon [1] | Gm10228 XM_001474297_at Wilcoxon [1] | Gm10228 XM_003086004_at Wilcoxon [1]
